Each block holds one compound with its values, some of them ahead of it. Calls of active or inactive are those of the source. No cut-off for these calls is given here.
How the values were obtained:
[1] = molecular target: T1, cGMP-specific 3',5'-cyclic phosphodiesterase (Homo sapiens, UniProt O76074); experiment: Inhibition of PDE5A (unknown origin) using […] as substrate incubated for 1 hr by fluorescence polarization assay
[2] = molecular target: T1, cGMP-specific 3',5'-cyclic phosphodiesterase; experiment: Inhibition of PDE5A (unknown origin) using […] as substrate at 100 nM incubated for 1 hr by fluorescence polarization assay relative to control
[3] = molecular target: High affinity cAMP-specific and IBMX-insensitive 3',5'-cyclic phosphodiesterase 8A (Homo sapiens, UniProt O60658); experiment: Inhibition of PDE8A1 (unknown origin) using FAM-cAMP as substrate incubated for 1 hr by fluorescence polarization assay
[4] = molecular target: cGMP-dependent 3',5'-cyclic phosphodiesterase (Homo sapiens, UniProt O00408); experiment: Inhibition of PDE2A (unknown origin) using FAM-cAMP as substrate incubated for 1 hr by fluorescence polarization assay
[5] = Apparent volume of distribution in Sprague-Dawley rat at 2 mg/kg, iv measured for 5 to 1440 mins by LC-MS/MS analysis; assay type: ADME, organism-based; settings: in vivo, time 5-1440 min, read-out: Vz
Cytochrome P450 1A2 = molecular target: T2, Cytochrome P450 1A2 (Homo sapiens, UniProt P05177); experiment: Inhibition of CYP1A2 (unknown origin); assay type: ADME
T2 sequence (P05177 whole entry): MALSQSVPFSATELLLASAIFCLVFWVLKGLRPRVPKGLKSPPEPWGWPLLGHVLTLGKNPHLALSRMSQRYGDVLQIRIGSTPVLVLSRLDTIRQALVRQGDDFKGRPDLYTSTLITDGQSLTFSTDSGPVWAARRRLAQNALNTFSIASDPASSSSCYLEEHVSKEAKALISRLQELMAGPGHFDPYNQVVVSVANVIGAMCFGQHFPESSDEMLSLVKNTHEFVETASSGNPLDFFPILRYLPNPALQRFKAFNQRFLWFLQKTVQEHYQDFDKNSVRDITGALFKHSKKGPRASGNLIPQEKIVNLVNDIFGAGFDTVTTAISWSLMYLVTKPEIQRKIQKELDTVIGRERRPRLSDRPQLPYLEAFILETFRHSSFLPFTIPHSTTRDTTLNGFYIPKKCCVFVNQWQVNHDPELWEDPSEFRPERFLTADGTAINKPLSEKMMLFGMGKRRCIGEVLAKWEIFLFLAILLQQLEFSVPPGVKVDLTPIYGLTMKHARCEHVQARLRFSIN

[6] = Tmax in Sprague-Dawley rat at 10 mg/kg, po measured for 5 to 1440 mins by LC-MS/MS analysis; assay type: ADME, organism-based; settings: in vivo, time 5-1440 min
[7] = MRT (0 to infinity) in Sprague-Dawley rat at 2 mg/kg, iv measured for 5 to 1440 mins by LC-MS/MS analysis; assay type: ADME, organism-based; settings: in vivo, time 5-1440 min
Cytochrome P450 2D6 = Cytochrome P450 2D6 (Homo sapiens, UniProt P10635); experiment: Inhibition of CYP2D6 (unknown origin); assay type: ADME
[8] = Tmax in Sprague-Dawley rat at 2 mg/kg, iv measured for 5 to 1440 mins by LC-MS/MS analysis; assay type: ADME, organism-based; settings: in vivo, time 5-1440 min
[9] = molecular target: cAMP and cAMP-inhibited cGMP 3',5'-cyclic phosphodiesterase 10A (Homo sapiens, UniProt Q9Y233); experiment: Inhibition of PDE10A2 (unknown origin) using FAM-cAMP as substrate incubated for 1 hr by fluorescence polarization assay
Rattus norvegicus [10] = experiment: Anti-Pulmonary arterial hypertension in mono-crotaline-treated Sprague-Dawley rat model assessed as decrease in mPAP level at 5 mg/kg for 21 days; assay type: functional, organism-based; settings: time 21.0 day
Rattus norvegicus [11] = experiment: Anti-Pulmonary arterial hypertension in mono-crotaline-treated Sprague-Dawley rat model assessed as decrease in mPAP level at 2.5 mg/kg for 21 days; assay type: functional, organism-based; settings: time 21.0 day
[12] = Cmax in Sprague-Dawley rat at 10 mg/kg, po measured for 5 to 1440 mins by LC-MS/MS analysis; assay type: ADME, organism-based; settings: in vivo, time 5-1440 min
[13] = Volume of distribution in Sprague-Dawley rat at 10 mg/kg, po measured for 5 to 1440 mins by LC-MS/MS analysis; assay type: ADME, organism-based; settings: in vivo, time 5-1440 min
[14] = Half life in Sprague-Dawley rat at 10 mg/kg, po measured for 5 to 1440 mins by LC-MS/MS analysis; assay type: ADME, organism-based; settings: in vivo, time 5-1440 min
Cytochrome P450 2C19 = Cytochrome P450 2C19 (Homo sapiens, UniProt P33261); experiment: Inhibition of CYP2C19 (unknown origin); assay type: ADME
[15] = Clearance in Sprague-Dawley rat at 10 mg/kg, po measured for 5 to 1440 mins by LC-MS/MS analysis; assay type: ADME, organism-based; settings: in vivo, time 5-1440 min
[16] = Half life in rat liver microsomes; assay type: ADME, Microsome
[17] = molecular target: High affinity 3',5'-cyclic-AMP phosphodiesterase 7A (Homo sapiens, UniProt Q13946); experiment: Inhibition of PDE7A (unknown origin) using FAM-cAMP as substrate incubated for 1 hr by fluorescence polarization assay
[18] = molecular target: cGMP-inhibited 3',5'-cyclic phosphodiesterase 3A (Homo sapiens, UniProt Q14432); experiment: Inhibition of PDE3A (unknown origin) using FAM-cAMP as substrate incubated for 1 hr by fluorescence polarization assay
[19] = Clearance in Sprague-Dawley rat at 2 mg/kg, iv measured for 5 to 1440 mins by LC-MS/MS analysis; assay type: ADME, organism-based; settings: in vivo, time 5-1440 min
[20] = molecular target: Dual specificity calcium/calmodulin-dependent 3',5'-cyclic nucleotide phosphodiesterase 1C (Homo sapiens, UniProt Q14123); experiment: Inhibition of PDE1C (unknown origin) using FAM-cAMP as substrate incubated for 1 hr by fluorescence polarization assay
[21] = Acute toxicity in mouse assessed as drug tolerance at >1.5 g/kg, po; settings: in vivo, 1500 mg/kg
[22] = MRT (0 to t) in Sprague-Dawley rat at 10 mg/kg, po measured for 5 to 1440 mins by LC-MS/MS analysis; assay type: ADME, organism-based; settings: in vivo, time 5-1440 min
[23] = Cmax in Sprague-Dawley rat at 2 mg/kg, iv measured for 5 to 1440 mins by LC-MS/MS analysis; assay type: ADME, organism-based; settings: in vivo, time 5-1440 min
[24] = molecular target: Dual 3',5'-cyclic-AMP and -GMP phosphodiesterase 11A (Homo sapiens, UniProt Q9HCR9); experiment: Inhibition of PDE11A (unknown origin) using FAM-cAMP as substrate incubated for 1 hr by fluorescence polarization assay
[25] = AUC (0 to infinity) in Sprague-Dawley rat at 2 mg/kg, iv measured for 5 to 1440 mins by LC-MS/MS analysis; assay type: ADME, organism-based; settings: in vivo, time 5-1440 min
[26] = molecular target: Cone cGMP-specific 3',5'-cyclic phosphodiesterase subunit alpha' (Homo sapiens, UniProt P51160); experiment: Inhibition of PDE6C (unknown origin) using […] as substrate incubated for 1 hr by fluorescence polarization assay
Rattus norvegicus [27] = experiment: Anti-Pulmonary arterial hypertension in mono-crotaline-treated Sprague-Dawley rat model assessed as decrease in pulmonary arteriole wall thickness at 2.5 to 5 mg/kg for 21 days by H and E staining based analysis; assay type: functional, organism-based; settings: dose 2.5-5 mg/kg, time 21.0 day
Cytochrome P450 3A4 = Cytochrome P450 3A4 (Homo sapiens, UniProt P08684); experiment: Inhibition of CYP3A4 (unknown origin); assay type: ADME
[28] = MRT (0 to t) in Sprague-Dawley rat at 2 mg/kg, iv measured for 5 to 1440 mins by LC-MS/MS analysis; assay type: ADME, organism-based; settings: in vivo, time 5-1440 min
[29] = Oral bioavailability in Sprague-Dawley rat at 10 mg/kg measured for 5 to 1440 mins by LC-MS/MS analysis; assay type: ADME, organism-based; settings: in vivo, time 5-1440 min
[30] = molecular target: High affinity cGMP-specific 3',5'-cyclic phosphodiesterase 9A (Homo sapiens, UniProt O76083); experiment: Inhibition of PDE9A2 (unknown origin) using […] as substrate incubated for 1 hr by fluorescence polarization assay
[31] = MRT (0 to infinity) in Sprague-Dawley rat at 10 mg/kg, po measured for 5 to 1440 mins by LC-MS/MS analysis; assay type: ADME, organism-based; settings: in vivo, time 5-1440 min
[32] = molecular target: 3',5'-cyclic-AMP phosphodiesterase 4D (Homo sapiens, UniProt Q08499); experiment: Inhibition of PDE4D2 (unknown origin) using FAM-cAMP as substrate incubated for 1 hr by fluorescence polarization assay
Rattus norvegicus [33] = experiment: Anti-Pulmonary arterial hypertension in mono-crotaline-treated Sprague-Dawley rat model assessed as decrease in RVHI level at 2.5 to 5 mg/kg for 21 days; assay type: functional, organism-based; settings: dose 2.5-5 mg/kg, time 21.0 day
[34] = Toxicity in mono-crotaline-treated Sprague-Dawley rat model of Pulmonary arterial hypertension assessed as body weight change at 2.5 to 5 mg/kg for 21 days; assay type: organism-based; settings: in vivo, 504 h, dose 2.5-5 mg/kg, time 21 day
[35] = AUC (0 to infinity) in Sprague-Dawley rat at 10 mg/kg, po measured for 5 to 1440 mins by LC-MS/MS analysis; assay type: ADME, organism-based; settings: in vivo, time 5-1440 min
[36] = molecular target: Voltage-gated inwardly rectifying potassium channel KCNH2 (Homo sapiens, UniProt Q12809); experiment: Inhibition of hERG; assay type: toxicity
[37] = AUC (0 to t) in Sprague-Dawley rat at 10 mg/kg, po measured for 5 to 1440 mins by LC-MS/MS analysis; assay type: ADME, organism-based; settings: in vivo, time 5-1440 min
[38] = AUC (0 to t) in Sprague-Dawley rat at 2 mg/kg, iv measured for 5 to 1440 mins by LC-MS/MS analysis; assay type: ADME, organism-based; settings: in vivo, time 5-1440 min
Cytochrome P450 2C9 = Cytochrome P450 2C9 (Homo sapiens, UniProt P11712); experiment: Inhibition of CYP2C9 (unknown origin); assay type: ADME
[39] = Half life in Sprague-Dawley rat at 2 mg/kg, iv measured for 5 to 1440 mins by LC-MS/MS analysis; assay type: ADME, organism-based; settings: in vivo, time 5-1440 min

Chain of cAMP and cAMP-inhibited cGMP 3',5'-cyclic phosphodiesterase 10A (Q9Y233 whole entry): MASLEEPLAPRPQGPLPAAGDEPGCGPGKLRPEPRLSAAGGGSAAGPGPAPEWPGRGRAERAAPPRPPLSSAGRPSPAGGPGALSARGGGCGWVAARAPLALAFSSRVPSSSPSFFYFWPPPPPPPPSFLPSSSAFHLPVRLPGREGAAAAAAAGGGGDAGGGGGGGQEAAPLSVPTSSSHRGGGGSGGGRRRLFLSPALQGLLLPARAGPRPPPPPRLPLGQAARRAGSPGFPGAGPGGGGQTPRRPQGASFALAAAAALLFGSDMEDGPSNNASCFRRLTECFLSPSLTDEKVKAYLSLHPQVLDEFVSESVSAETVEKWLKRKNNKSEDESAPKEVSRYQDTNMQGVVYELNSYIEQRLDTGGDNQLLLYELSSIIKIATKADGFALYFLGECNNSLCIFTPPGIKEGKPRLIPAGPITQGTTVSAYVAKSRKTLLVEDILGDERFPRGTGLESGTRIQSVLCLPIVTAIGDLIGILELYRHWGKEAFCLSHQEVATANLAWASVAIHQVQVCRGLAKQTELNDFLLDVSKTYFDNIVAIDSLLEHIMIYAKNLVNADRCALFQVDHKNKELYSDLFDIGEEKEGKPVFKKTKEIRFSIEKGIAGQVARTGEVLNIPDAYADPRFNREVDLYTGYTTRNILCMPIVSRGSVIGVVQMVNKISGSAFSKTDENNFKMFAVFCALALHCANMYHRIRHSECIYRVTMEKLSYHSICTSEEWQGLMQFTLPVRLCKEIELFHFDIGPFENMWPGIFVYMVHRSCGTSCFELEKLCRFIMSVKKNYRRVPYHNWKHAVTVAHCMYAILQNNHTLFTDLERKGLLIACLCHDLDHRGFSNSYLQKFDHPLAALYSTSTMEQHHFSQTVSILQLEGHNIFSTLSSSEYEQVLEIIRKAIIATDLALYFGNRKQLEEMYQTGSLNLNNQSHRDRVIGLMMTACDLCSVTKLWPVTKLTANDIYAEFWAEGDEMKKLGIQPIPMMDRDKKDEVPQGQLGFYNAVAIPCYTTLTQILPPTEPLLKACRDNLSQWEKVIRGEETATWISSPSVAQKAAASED
Chain of Dual 3',5'-cyclic-AMP and -GMP phosphodiesterase 11A (Q9HCR9 whole entry): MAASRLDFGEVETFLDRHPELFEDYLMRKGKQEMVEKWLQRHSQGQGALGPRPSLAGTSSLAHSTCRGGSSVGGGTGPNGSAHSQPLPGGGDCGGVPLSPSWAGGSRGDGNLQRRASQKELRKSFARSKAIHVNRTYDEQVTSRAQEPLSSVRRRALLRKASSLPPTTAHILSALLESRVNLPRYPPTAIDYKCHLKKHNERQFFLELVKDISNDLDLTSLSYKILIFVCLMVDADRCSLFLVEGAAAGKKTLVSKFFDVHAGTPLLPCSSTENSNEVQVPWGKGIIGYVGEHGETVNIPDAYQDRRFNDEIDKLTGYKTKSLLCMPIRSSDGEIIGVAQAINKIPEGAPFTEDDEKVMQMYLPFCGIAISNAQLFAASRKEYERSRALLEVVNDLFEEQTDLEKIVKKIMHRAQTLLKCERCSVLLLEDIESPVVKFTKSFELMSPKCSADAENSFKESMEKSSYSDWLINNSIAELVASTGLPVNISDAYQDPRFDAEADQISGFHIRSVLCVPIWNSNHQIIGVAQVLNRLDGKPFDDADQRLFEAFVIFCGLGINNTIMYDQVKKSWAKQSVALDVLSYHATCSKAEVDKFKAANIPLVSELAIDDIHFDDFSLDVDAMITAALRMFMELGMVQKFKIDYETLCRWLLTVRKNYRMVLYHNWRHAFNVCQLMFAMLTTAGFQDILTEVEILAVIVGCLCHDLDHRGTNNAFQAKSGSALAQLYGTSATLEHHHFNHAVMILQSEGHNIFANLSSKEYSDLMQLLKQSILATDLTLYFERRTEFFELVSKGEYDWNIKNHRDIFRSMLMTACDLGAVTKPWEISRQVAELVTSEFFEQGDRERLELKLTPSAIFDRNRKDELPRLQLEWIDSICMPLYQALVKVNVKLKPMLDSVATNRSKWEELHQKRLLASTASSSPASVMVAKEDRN
Chain of High affinity cGMP-specific 3',5'-cyclic phosphodiesterase 9A (O76083 whole entry): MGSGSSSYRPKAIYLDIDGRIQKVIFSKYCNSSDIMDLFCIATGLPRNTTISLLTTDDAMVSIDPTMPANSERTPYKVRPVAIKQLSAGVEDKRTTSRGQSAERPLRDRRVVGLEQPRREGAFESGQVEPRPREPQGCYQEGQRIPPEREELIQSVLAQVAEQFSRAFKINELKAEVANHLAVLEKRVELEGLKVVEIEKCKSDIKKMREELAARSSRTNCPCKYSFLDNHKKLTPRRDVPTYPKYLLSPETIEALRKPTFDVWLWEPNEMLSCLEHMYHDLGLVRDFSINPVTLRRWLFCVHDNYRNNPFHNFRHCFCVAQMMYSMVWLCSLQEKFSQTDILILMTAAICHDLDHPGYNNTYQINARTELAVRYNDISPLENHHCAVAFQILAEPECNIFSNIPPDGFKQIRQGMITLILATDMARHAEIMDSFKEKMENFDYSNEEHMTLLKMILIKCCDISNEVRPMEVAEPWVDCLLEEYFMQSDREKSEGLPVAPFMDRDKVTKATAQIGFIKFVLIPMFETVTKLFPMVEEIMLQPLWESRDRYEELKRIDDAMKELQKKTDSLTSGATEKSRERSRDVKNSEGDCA
Chain of High affinity cAMP-specific and IBMX-insensitive 3',5'-cyclic phosphodiesterase 8A (O60658 whole entry): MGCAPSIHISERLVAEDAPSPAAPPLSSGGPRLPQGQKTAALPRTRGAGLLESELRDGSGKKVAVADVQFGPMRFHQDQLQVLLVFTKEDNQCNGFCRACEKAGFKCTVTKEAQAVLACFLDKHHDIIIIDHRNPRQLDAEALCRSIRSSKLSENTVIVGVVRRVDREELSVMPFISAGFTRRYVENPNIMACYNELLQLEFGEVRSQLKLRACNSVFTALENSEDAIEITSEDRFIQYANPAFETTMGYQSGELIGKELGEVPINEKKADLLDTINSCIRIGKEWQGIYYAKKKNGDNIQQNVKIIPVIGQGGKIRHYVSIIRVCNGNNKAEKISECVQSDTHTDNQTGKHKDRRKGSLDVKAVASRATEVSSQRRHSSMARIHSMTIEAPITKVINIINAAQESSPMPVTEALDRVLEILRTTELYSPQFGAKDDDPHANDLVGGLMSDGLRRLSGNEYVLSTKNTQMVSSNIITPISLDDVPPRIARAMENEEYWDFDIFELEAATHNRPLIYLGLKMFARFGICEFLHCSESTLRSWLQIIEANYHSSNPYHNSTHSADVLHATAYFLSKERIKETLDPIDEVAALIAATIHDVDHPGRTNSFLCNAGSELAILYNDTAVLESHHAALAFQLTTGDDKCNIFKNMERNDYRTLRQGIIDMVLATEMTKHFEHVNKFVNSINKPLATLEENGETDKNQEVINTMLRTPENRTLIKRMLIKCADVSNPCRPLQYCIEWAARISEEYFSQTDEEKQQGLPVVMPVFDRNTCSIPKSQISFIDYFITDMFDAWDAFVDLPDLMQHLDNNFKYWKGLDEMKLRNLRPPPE
Chain of Voltage-gated inwardly rectifying potassium channel KCNH2 (Q12809 whole entry): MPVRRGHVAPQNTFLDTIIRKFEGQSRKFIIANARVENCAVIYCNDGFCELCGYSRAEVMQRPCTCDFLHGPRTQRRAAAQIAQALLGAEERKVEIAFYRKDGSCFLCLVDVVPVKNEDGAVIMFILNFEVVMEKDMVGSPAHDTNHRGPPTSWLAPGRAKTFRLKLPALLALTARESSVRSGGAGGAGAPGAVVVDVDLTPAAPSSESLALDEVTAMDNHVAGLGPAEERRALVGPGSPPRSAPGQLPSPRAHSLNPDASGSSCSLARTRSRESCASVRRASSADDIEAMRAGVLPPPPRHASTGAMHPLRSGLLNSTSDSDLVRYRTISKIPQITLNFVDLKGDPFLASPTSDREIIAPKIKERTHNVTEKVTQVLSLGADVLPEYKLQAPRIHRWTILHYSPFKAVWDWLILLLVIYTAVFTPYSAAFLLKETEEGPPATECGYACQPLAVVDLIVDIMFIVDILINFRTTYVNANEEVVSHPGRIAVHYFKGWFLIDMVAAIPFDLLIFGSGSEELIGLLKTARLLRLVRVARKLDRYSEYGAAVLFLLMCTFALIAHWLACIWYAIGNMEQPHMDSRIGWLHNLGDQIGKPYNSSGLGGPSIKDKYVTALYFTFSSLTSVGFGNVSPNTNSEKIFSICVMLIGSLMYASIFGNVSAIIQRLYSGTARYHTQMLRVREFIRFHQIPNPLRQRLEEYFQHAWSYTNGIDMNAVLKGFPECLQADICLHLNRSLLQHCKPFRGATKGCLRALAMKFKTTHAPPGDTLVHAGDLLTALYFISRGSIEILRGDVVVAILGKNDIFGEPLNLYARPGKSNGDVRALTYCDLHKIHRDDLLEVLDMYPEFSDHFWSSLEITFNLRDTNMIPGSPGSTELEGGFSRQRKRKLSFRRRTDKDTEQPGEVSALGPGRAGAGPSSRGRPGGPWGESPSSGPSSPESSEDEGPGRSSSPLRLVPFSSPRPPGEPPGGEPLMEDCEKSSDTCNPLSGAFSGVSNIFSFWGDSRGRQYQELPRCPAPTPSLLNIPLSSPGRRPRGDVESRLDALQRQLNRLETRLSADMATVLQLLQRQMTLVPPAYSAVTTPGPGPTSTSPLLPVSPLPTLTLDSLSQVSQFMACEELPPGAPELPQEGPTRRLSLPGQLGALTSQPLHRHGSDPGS
Chain of Cytochrome P450 3A4 (P08684 whole entry): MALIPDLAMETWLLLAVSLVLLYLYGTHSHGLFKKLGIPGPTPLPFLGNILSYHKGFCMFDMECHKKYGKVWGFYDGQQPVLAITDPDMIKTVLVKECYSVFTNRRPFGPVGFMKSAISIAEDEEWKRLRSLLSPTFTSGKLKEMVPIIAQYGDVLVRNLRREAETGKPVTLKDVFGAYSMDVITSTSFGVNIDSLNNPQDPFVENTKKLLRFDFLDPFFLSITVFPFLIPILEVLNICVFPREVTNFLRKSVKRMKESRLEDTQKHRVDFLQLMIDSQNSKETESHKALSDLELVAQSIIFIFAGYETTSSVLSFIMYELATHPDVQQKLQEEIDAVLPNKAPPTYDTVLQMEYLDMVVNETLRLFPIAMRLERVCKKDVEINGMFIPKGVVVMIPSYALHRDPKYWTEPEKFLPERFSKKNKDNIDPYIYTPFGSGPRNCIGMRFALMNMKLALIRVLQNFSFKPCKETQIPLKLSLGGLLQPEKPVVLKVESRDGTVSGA

- IC50 [1]: 0.073 µM
SMILES: Cc1ccc(-c2c(C#N)c(=O)n(Cc3ccncc3)c3c(N[C@H](C)c4ccccn4)cccc23)cc1

- IC50 [1]: 0.02 µM
SMILES: Cc1ccc(-c2c(C#N)c(=O)n(Cc3ccccc3)c3c(NCc4ccccn4)cccc23)cc1

- IC50 [1]: 0.01 µM
SMILES: Cc1ccc(-c2c(C#N)c(=O)n(Cc3ccccc3)c3c(NC(C)c4ccccn4)cccc23)cc1 (configuration not stated)

- IC50 [1]: 0.03 µM
SMILES: CCCCNc1cccc2c(-c3ccc(C)cc3)c(C#N)c(=O)n(Cc3ccccc3)c12

Second part, the compound before the results:

SMILES: Cc1ccc(-c2c(C#N)c(=O)n(Cc3ccc(F)cc3)c3c(NC(C)c4ccccn4)cccc23)cc1 (configuration not stated)
- inhibition [2]: 5%

SMILES: COc1ccc(-c2c(C#N)c(=O)n(Cc3ccccc3)c3c(N[C@H](C)c4ccccn4)cccc23)cc1
- IC50 [3]: > 100 µM
- IC50 [4]: 3.38 µM
- Vd [5]: 16.3 L/kg
- IC50 (Cytochrome P450 1A2): > 50 µM
- Tmax [6]: 4 h
- MRT inf [7]: 0.76 h
- IC50 (Cytochrome P450 2D6): > 50 µM
- Tmax [8]: 4.98 min
- IC50 [9]: 21.2 µM
- Activity (Rattus norvegicus [10]): Active; The Effect Was Marginally Superior To That Of Sildenafil
- Activity (Rattus norvegicus [11]): inactive
- Cmax [12]: 0.0584 µg/mL
- Vz [13]: 126.6 L/kg
- half-life [14]: 2.79 h
- IC50 (Cytochrome P450 2C19): 4.63 µM
- CL/F [15]: 31.5 L/h/kg
- half-life [16]: 4.41 min
- IC50 [17]: 25.7 µM
- IC50 [18]: > 100 µM
- clearance [19]: 5 L/h/kg
- IC50 [20]: 10.5 µM
- Activity [21]: Non-toxic
- MRT last [22]: 6.3 h
- Cmax [23]: 0.985 µg/mL
- IC50 [24]: > 100 µM
- AUC(0-inf) [25]: 0.399 µg·h/mL
- IC50 [26]: 0.02 µM
- Activity (Rattus norvegicus [27]): Active
- IC50 (Cytochrome P450 3A4): > 50 µM
- MRT last [28]: 0.75 h
- bioavailability [29]: 16.8%
- IC50 [30]: > 100 µM
- MRT inf [31]: 6.4 h
- IC50 [32]: 53.3 µM
- Activity (Rattus norvegicus [33]): Active
- Activity [34]: Non-toxic
- IC50 [1]: 0.003 µM
- AUC(0-inf) [35]: 0.341 µg·h/mL
- IC50 [36]: > 30 µM
- AUC(0-t) [37]: 0.339 µg·h/mL
- AUC(0-t) [38]: 0.399 µg·h/mL
- IC50 (Cytochrome P450 2C9): 9.76 µM
- half-life [39]: 2.25 h

SMILES: COc1ccc(Cn2c(=O)c(C#N)c(-c3ccc(C)cc3)c3cccc(NC(C)c4ccccn4)c32)cc1Cl (configuration not stated)
- inhibition [2]: 12%

SMILES: Cc1ccc(-c2c(C#N)c(=O)n(Cc3ccccc3)c3cc(NC(C)c4ccccn4)ccc23)cc1 (configuration not stated)
- IC50 [1]: 0.578 µM

SMILES: Cc1ccc(-c2c(C#N)c(=O)n(Cc3ccc4c(c3)OCO4)c3c(NC(C)c4ccccn4)cccc23)cc1 (configuration not stated)
- IC50 [1]: 0.198 µM

SMILES: CC(Nc1cccc2c(C3CCCCC3)c(C#N)c(=O)n(Cc3ccccc3)c12)c1ccccn1 (configuration not stated)
- IC50 [1]: 0.034 µM
